Earlier results on 32 molecules are cited in patent US20130303466A1, “Chemosensory Receptor Ligand-Based Therapies” (ELCELYX THERAPEUTICS, INC., priority 2010, published 2013).

The target of the data set is T1, sweet receptor (Homo sapiens, UniProt Q7RTX0+Q8TE23).
T1 sequence (Q8TE23 20-839): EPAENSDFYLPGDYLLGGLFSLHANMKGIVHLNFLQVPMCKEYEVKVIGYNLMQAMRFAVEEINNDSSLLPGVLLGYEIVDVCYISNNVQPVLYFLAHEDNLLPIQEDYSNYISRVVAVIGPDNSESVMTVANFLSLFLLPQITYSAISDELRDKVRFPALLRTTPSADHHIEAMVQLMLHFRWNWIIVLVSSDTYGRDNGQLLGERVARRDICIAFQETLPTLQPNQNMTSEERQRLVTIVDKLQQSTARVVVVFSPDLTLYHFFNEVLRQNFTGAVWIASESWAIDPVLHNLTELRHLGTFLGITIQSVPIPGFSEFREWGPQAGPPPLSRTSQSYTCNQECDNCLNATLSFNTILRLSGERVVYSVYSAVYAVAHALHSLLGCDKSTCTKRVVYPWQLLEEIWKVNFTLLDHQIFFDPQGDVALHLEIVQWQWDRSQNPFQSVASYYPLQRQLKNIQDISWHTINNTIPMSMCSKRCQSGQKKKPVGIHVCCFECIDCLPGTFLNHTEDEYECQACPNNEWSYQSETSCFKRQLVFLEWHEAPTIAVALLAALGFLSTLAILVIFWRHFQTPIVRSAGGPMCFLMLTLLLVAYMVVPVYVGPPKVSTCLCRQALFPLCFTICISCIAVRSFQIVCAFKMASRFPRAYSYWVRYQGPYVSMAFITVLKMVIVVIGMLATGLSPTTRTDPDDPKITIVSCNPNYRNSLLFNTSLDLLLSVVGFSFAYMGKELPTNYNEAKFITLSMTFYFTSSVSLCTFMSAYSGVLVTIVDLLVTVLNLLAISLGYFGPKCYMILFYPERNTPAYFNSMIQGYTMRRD
T1 sequence (Q7RTX0 21-852): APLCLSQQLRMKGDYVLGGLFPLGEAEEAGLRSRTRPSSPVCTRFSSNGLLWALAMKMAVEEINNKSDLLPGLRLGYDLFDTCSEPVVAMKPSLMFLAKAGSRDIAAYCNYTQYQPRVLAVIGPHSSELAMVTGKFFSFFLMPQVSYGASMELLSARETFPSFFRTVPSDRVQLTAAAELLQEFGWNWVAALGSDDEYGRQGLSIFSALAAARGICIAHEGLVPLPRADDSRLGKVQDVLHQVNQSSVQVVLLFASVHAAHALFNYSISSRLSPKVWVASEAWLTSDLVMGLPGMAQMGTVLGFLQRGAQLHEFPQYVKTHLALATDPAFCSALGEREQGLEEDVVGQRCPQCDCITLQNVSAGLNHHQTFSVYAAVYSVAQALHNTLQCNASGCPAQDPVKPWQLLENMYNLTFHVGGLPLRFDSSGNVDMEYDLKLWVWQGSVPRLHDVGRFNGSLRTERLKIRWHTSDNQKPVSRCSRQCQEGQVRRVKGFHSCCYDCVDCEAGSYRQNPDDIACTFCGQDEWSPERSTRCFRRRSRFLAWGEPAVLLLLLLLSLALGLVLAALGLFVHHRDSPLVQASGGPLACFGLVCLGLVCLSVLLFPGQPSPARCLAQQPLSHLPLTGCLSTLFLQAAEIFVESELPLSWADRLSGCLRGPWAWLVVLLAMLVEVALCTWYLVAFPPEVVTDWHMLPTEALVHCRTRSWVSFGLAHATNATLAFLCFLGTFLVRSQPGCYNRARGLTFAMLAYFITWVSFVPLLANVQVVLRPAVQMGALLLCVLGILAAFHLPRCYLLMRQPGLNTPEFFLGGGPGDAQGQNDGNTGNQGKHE
To be noted: relative sweetness on a weight comparison basis to sucrose (= 1.0); ranges: relative sweetness varied with the concentration of sucrose; adapted from Kim et al., 2002.
Take `C=C(C)C1CCC2(C)C(CC(OC3OCC(O)C(O)C3O)C3C(C(C)(O)C/C=C/C(C)(C)O)CCC32C)C1(C)CCC(=O)O` (centres unmarked) [Pterocaryoside B (63), Pterocaryoside B]: the Sweetness/potency is given as 100. Regarding `C=C1C[C@@]23CC[C@H]4[C@@](C)(CCC[C@@]4(C)C(=O)O[C@@H]4O[C@H](CO)[C@@H](O)[C@H](O)[C@H]4O)[C@@H]2CC[C@]1(O[C@@H]1O[C@H](CO)[C@@H](O)[C@H](O)[C@H]1O[C@@H]1O[C@H](CO)[C@@H](O)[C@H](O)[C@H]1O)C3` [Stevioside (5), Stevioside], the Sweetness/potency is listed as 210.

Consider Curculin, for which the Sweetness/potency was 550. In the case of Polypodoside A [Polypodoside A (65)], the Sweetness/potency is reported as 600. On to `COc1ccc(C2Oc3cc(O)cc(O)c3C(=O)C2OC(C)=O)cc1O` (centres unmarked) [Dihydroquercetin 3-O-acetate 4′-methyl ether], for which the Sweetness/potency is on record as 400. Consider Periandrin IV [Periandrin IV (60)], for which the Sweetness/potency is reported as 85. Consider `CC(=O)O[C@H]1C(=O)c2c(O)cc(O)cc2O[C@@H]1c1ccc(O)c(O)c1` [(2R,3R)-Dihydroquercetin 3-O-acetate], for which the Sweetness/potency is listed as 80. On to Scandenoside R6 [Scandenoside R6 (39)], for which the Sweetness/potency was 54. Consider `COc1ccc(CCC(=O)c2c(O)cc(O[C@@H]3O[C@H](CO)[C@@H](O)[C@H](O)[C@H]3O[C@@H]3O[C@@H](C)[C@H](O)[C@@H](O)[C@H]3O)cc2O)cc1O` [Neohesperidin dihydrochalcone (82), Neohesperidin dihydrochalcone], for which the Sweetness/potency is reported as 1,000.

`C/C(=C\CC[C@@H](C)[C@H]1CC[C@@]2(C)[C@@H]3CC=C4[C@@H](CC[C@H](O[C@@H]5O[C@H](CO)[C@@H](O)[C@H](O)[C@H]5O)C4(C)C)[C@]3(C)[C@H](O)C[C@]12C)CO[C@@H]1O[C@H](CO[C@@H]2O[C@H](CO)[C@@H](O)[C@H](O)[C@H]2O)[C@@H](O)[C@H](O)[C@H]1O` [Carnosifloside VI (36), Carnosifloside VI]: the Sweetness/potency is listed as 77. For Rebaudioside C [Rebaudioside C (17)], the Sweetness/potency is 30. Regarding “Cyclocarioside A [Cyclocarioside A (47)]”, the Sweetness/potency is recorded as 200. As to “Brazzein: sweet protein from Pentadiplandra brazzeana Baillon (QDKCKKVYENYPVSKCQLANQCNYDCKLDKHARSGECFYDEKRNLQCICDYCEY; UniProt P56552 1-54, looked up)”, the Sweetness/potency was 2,000.

`CC1(C)[C@@H](O[C@H]2O[C@H](C(=O)O)[C@@H](O)[C@H](O)[C@H]2O[C@@H]2OC[C@H](O)[C@H](O)[C@H]2O)CC[C@]2(C)[C@H]3C(=O)C=C4[C@@H]5C[C@@](C)(C(=O)O)CC[C@]5(C)CC[C@@]4(C)[C@]3(C)CC[C@@H]12` [Araboglycyrrhizin (56), Araboglycyrrhizin]: the Sweetness/potency is on record as 150. With `CC1(C)[C@@H](O[C@@H]2O[C@H](C(=O)O)[C@@H](O)[C@H](O)[C@H]2O[C@@H]2O[C@H](C(=O)O)[C@@H](O)[C@H](O)[C@H]2O)CC[C@]2(C=O)[C@H]3CC[C@@H]4C5=C[C@@](C)(C(=O)O)CC[C@]5(C)CC[C@@]4(C)[C@]3(C)CC[C@@H]12` [Periandrin I (57), Periandrin I], the Sweetness/potency is on record as 90. Turning to `CC1=CC[C@@H]([C@@H](C)[C@H]2CC[C@@]3(C)[C@@H]4CC[C@H]5[C@](C)(C(=O)O)[C@@H](O[C@@H]6O[C@H](CO)[C@@H](O)[C@H](O)[C@H]6O)CC[C@@]56C[C@@]46CC[C@]23C)OC1=O` [Abrusoside A (42), Abrusoside A], the Sweetness/potency was 30. For the molecule Monellin, the Sweetness/potency is given as 3,000. For Rebaudioside B [Rebaudioside B (16)], the Sweetness/potency is 150. On to `C[C@@H]1O[C@@H](O[C@H]2[C@H](Oc3cc(O)c(C(=O)CCc4ccc(O)cc4)c(O)c3)O[C@H](CO)[C@@H](O)[C@@H]2O)[C@H](O)[C@H](O)[C@H]1O` [Naringin dihydrochalcone (81), Naringin dihydrochalcone], for which the Sweetness/potency was 300. For the molecule `Oc1cc2c(cc1O)[C@@H]1c3ccc(O)c(O)c3OC[C@]1(O)C2` [Hematoxylin (99), Hematoxylin], the Sweetness/potency is 120.

On to Dulcoside A [Dulcoside A (15)], for which the Sweetness/potency is listed as 30. As for `C/C(=C\CO)CCC1=C(C=O)CC(OC2OCC(O)C(O)C2O)C2C(C)(CO)CCCC12C` (centres unmarked) [Gaudichaudioside A (32), Gaudichaudioside A], the Sweetness/potency was 55. As for Pentadin, the Sweetness/potency was 500. Take “Albiziasaponin B [Albiziasaponin B (51)]”: the Sweetness/potency is on record as 600. In the case of `C[C@@H]1O[C@@H](O[C@H]2O[C@@H]([C@@H](C)C3CC[C@@H]4[C@H]5CC(=O)[C@@H]6C[C@H](O[C@@H]7O[C@H](CO)[C@@H](O)[C@H](O)[C@H]7O[C@@H]7O[C@@H](C)[C@H](O)[C@@H](O)[C@H]7O)CC[C@]6(C)[C@@H]5CC[C@]34C)CC[C@@H]2C)[C@H](O)[C@H](O)[C@H]1O` (some centres unmarked) [Osladin (64), Osladin], the Sweetness/potency is on record as 500.

Consider `C=C1C[C@@]23CC[C@H]4[C@@](C)(CCC[C@@]4(C)C(=O)O)[C@@H]2CC[C@]1(O[C@@H]1O[C@H](CO)[C@@H](O)[C@H](O)[C@H]1O[C@@H]1O[C@H](CO)[C@@H](O)[C@H](O)[C@H]1O)C3` [Steviolbioside (22), Steviolbioside], for which the Sweetness/potency is reported as 90. Turning to `CC1=CC[C@@H]([C@@H](C)[C@H]2CC[C@@]3(C)[C@@H]4CC[C@H]5[C@](C)(C(=O)O)[C@@H](O[C@@H]6O[C@H](CO)[C@@H](O)[C@H](O)[C@H]6O[C@@H]6O[C@H](CO)[C@@H](O)[C@H](O)[C@H]6O)CC[C@@]56C[C@@]46CC[C@]23C)OC1=O` [Abrusoside C (44), Abrusoside C], the Sweetness/potency is on record as 50. With `Oc1ccc([C@H]2Oc3c(c(O)cc4c3[C@H]3c5c(O)cc(O)cc5O[C@@](c5ccc(O)cc5)(O4)[C@@H]3O)[C@H](c3c(O)cc(O)c4c3O[C@H](c3ccc(O)cc3)[C@@H](O)C4)[C@H]2O)cc1` [Selligueain A (96), Selligueain A], the Sweetness/potency was 35. Turning to `C/C(=C\CC/C(C)=C/CO[C@@H]1O[C@H](CO)[C@@H](O)[C@H](O[C@@H]2O[C@@H](C)[C@H](O)[C@@H](O)[C@H]2O)[C@H]1O[C@@H]1O[C@@H](C)[C@H](O)[C@@H](O)[C@H]1O)CC/C=C(\C)CO[C@@H]1O[C@H](CO)[C@@H](O)[C@H](O[C@@H]2O[C@@H](C)[C@H](O)[C@@H](O)[C@H]2O)[C@H]1O[C@@H]1O[C@@H](C)[C@H](O)[C@@H](O)[C@H]1O` [Mukurozioside IIb (13), Mukurozioside IIb], the Sweetness/potency entry is listed as “ca. 1”. Regarding `COc1c(O)cc2c(c1O)C(=O)[C@H](O)[C@@H](c1ccc(O)c(O)c1)O2` [(2R,3R)-2,3-Dihydro-5,7,3′,4′-tetrahydroxy-6-methoxyflavonol], the Sweetness/potency was 15. Turning to `COc1c(O)cc2c(c1O)C(=O)[C@H](OC(C)=O)[C@@H](c1ccc(O)c(O)c1)O2` [(2R,3R)-2,3-Dihydro-5,7,3′,4′-tetrahydroxy-6-methoxy-3-O-acetylflavonol], the Sweetness/potency is recorded as 25.

With `CC(C)=CCC[C@](C)(O)[C@@H]1CCC(C)=CC1=O` [(+)-Hernandulcin (11), (+)-Hernandulcin], the Sweetness/potency is 1,500.
